Data on 14 molecules can be found in ChEMBL document CHEMBL2151013, “Diarylheptanoid sulfates and related compounds from Myrica rubra bark” (J Nat Prod, 2012).

The nature of experiment [1]: Antioxidant activity assessed as superoxide dismutase-like activity by SOD-WST assay. It counts as functional.
A short description of experiment [2]: Antioxidant activity assessed as trolox equivalent of […]-induced radical scavenging activity by ORAC fluorescence assay. It counts as functional.

Values after ≈ are worked out from the molar mass of the structure shown.

On to `O=c1c(O)c(-c2cc(O)c(O)c(O)c2)oc2cc(O)cc(O)c12` [MYRICETIN], for which the half-maximal inhibitory concentration (IC50) in experiment [1] was 139.6 µg/mL (≈ 439 µM). Further, the Activity in experiment [2] was 16100 µmolequiv/g.
For the molecule `COc1c2cc(c(O[C@@H]3O[C@H](COC(=O)c4cc(O)c(O)c(O)c4)[C@@H](O)[C@H](O)[C@H]3O)c1OC)CCCC[C@@H](O)CCc1ccc(O)c-2c1`, the half-maximal inhibitory concentration (IC50) in experiment [1] came to 90.5 µg/mL (≈ 135 µM).
Same read-out and setting: under `O=C(O[C@@H]1[C@@H](c2c(O)cc(O)c3c2O[C@H](c2cc(O)c(O)c(O)c2)[C@H](OC(=O)c2cc(O)c(O)c(O)c2)C3)c2c(O)cc(O)cc2O[C@@H]1c1cc(O)c(O)c(O)c1)c1cc(O)c(O)c(O)c1` stands 19.2 µg/mL (≈ 21 µM).
On to `COc1cc2cc(c1O)-c1cc(ccc1O)CC[C@@H](OS(=O)(=O)O)CCCC2`, for which the half-maximal inhibitory concentration (IC50) in experiment [1] is greater than 1000 µg/mL. In addition, the Activity in experiment [2] amounted to 9620 µmolequiv/g.
For `COc1c2cc(c(O)c1OC)CCCC[C@@H](OS(=O)(=O)O)CCc1ccc(O)c-2c1` the same measures were 786.9 µg/mL (≈ 1790 µM) and 8680 µmolequiv/g.
Consider `COc1c2cc(c(O)c1OC)CCCCC(=O)CCc1ccc(O)c-2c1` [MYRICANONE], for which the half-maximal inhibitory concentration (IC50) in experiment [1] was greater than 1000 µg/mL.
As for `COC1=C(OC)C(=O)C2=C(CCCCC(O)CCc3ccc(O)c2c3)C1=O` (stereo not drawn) [ACTINIDIONE], the IC50 in experiment [1] came out at 7.9 µg/mL (≈ 21.2 µM).
For the molecule `COc1c2cc(c(O)c1OC)CCCC[C@@H](O)CCc1ccc(O)c-2c1`, the IC50 in experiment [1] is greater than 100 µg/mL.
Turning to `COc1c2cc(c(O[C@@H]3O[C@H](COC(=O)c4cc(O)c(O)c(O)c4)[C@@H](O)[C@H](O)[C@H]3O)c1OC)CCCC[C@H](O)CCc1ccc(O)c-2c1`, the IC50 in experiment [1] turned out to be 139.6 µg/mL (≈ 208 µM).
Regarding `O=C(O)c1cc(O)c(O)c(O)c1` [GALLIC ACID], the half-inhibitory concentration (IC50) in experiment [1] was 6.3 µg/mL (≈ 37 µM).
For `O=C(O[C@@H]1Cc2c(O)cc(O)cc2O[C@@H]1c1cc(O)c(O)c(O)c1)c1cc(O)c(O)c(O)c1` [EPIGALOCATECHIN GALLATE], the IC50 in experiment [1] was 26.1 µg/mL (≈ 56.9 µM).
The same measure, in the same setting: under `COc1c2cc(c(O[C@@H]3O[C@H](COC(=O)c4cc(O)c(O)c(O)c4)[C@@H](O)[C@H](O)[C@H]3O)c1OC)CCCCC(=O)CCc1ccc(O)c-2c1` stands 106.8 µg/mL (≈ 159 µM).
With `C[C@H]1O[C@@H](Oc2c(-c3cc(O)c(O)c(O)c3)oc3cc(O)cc(O)c3c2=O)[C@@H](O)[C@@H](O)[C@@H]1O` [MYRICITRIN], the half-maximal inhibitory concentration (IC50) in experiment [1] amounted to 127.5 µg/mL (≈ 275 µM). For the same molecule, in experiment [2], the Activity was 13200 µmolequiv/g.
As for `C[C@@H]1O[C@@H](Oc2c(-c3cc(O)c(O)c(O)c3)oc3cc(O)cc(O)c3c2=O)[C@H](OC(=O)c2cc(O)c(O)c(O)c2)[C@H](O)[C@H]1O`, the 50% inhibitory concentration (IC50) in experiment [1] worked out at 38.6 µg/mL (≈ 62.6 µM).
